Columns and labels:
IL-6, MCP-1 = assay: Cytokine induction in non-human primates; assay type: in vivo, Cynomolgus monkeys
Procedure: (§1) The tolerability and efficacy of nanoparticle compositions to non-human primates was also investigated using a sample formulation including Compound 18. The formulation was prepared according to the standard MC3 formulation described above and included an hEPO mRNA. Primates were administered a single dose of 0.05 (Group 1), 0.3 (Group 2), or 1.0 (Group 3) mpk via intravenous infusion for 60 minutes. Three primates were administered each dose. Expression of hEPO was measured prior to dosing and at 2, 6, 24, 48, and 96 hours post-treatment (Table 26). Table 28 includes levels of indicators of complement activation, while Table 29 includes cytokine induction data.
hEPO ELISA for NHP samples: Human Epo levels were measured using a human erythropoietin immunoassay. Cytokines levels were measured using a non-human primate cytokine kit.

[1] = One month toxicology evaluation in non-human primate: serum ALT and AST; assay type: in vivo; conditions: cynomolgus monkeys, 1 mg/kg mRNA, intravenously by 60 min infusion, dosed weekly, 24 post fifth dose; PBS pre-dose vs day 30 levels
Procedure: FIGS. 32A-32C are a series of graphs summarizing the results of a one month toxicology evaluation in rat and non-human primate. PBS (phosphate buffered saline) was used as a control. […] The serum levels were measured 24 post fifth dose (n=4). […] The serum levels were measured 24 post fifth dose (n=4).

[2] = Tissue distribution and liver tissue clearance of lipid after weekly intravenous doses to CD-1 mice; assay type: in vivo; conditions: liver tissue, 0.25 mg/kg mRNA, weekly dosing
From the text: FIGS. 30A-30C are a series of graphs showing the pharmacokinetic and expression profile of Compound 18 after multiple doses. FIG. […]
FIGS. 35A and 35B are a pair of graphs comparing the tissue distribution of MC3 and compound 18.

human hepatocytes = assay: Metabolite profiling of Compound 18 with human hepatocytes; assay type: in vitro ADME; set-up: key to Detection in incubation: +: Detected; ND: Not detected; conditions: Compound 18 (10 μM), human hepatocytes
Procedure: The results of metabolic profiling and characterization for compound 18 incubated with human hepatocytes or human plasma are summarized in Tables 41 and 42, respectively.

[3] = test system: ApoE-mediated LDLr dependent uptake; assay: Expression in ApoE knockout mice and LDLr knockout mice; conditions: mouse, in vivo
[4] = Tolerability of Compound 18 formulation in non-human primates, single dose; assay type: in vivo
Procedure: as §1
In general, lower doses were better tolerated. High doses induced body temperature elevation and hunched posture, which is similar to the behavior observed for primates administered higher doses of MC3 formulations.

[5] = Sprague Dawley, rat, in vivo, iv, 5 mg/kg, 20 min
Procedure: Sprague Dawley rats were administered with nanoparticles of the disclosure via i.v. bolus at 5 mpk. The nanoparticle contained two mRNA encoding a broadly neutralizing influenza antibody in a 2:1 ratio.

hEPO mRNA = assay: Pretreatment study in Cynomolgus monkeys (standard MC3 formulation, hEPO mRNA); assay type: in vivo; conditions: once weekly for four weeks, absence of any pretreatment
Procedure: The effects of pretreatment to non-human primates were evaluated using a standard MC3 formulation including an mRNA encoding hEPO. Male monkeys were administered the nanoparticle composition once weekly for four weeks at a dose rate of 5 ml/kg/h and were pretreated with either methotrexate or dexamethasone.
As shown, in the absence of any pretreatment, maximal expression levels decreased nearly 70% over the course of the study.

[6] = single dose 0.05, 0.3 or 1.0 mpk, i.v. infusion 60 minutes

## CCCCCCCCCOC(=O)CCCCCCCN(CCO)CCCCCCCC(=O)OC(CCCCCCCC)CCCCCCCC [Compound 18, Heptadecan-9-yl 8-((2-hydroxyethyl)(8-(nonyloxy)-8-oxooctyl)amino)octanoate]
IL-6, MCP-1; 0.05 mpk, 2 h
  IFNg: 18.8 pg/mL
  IFNα: 18.8 pg/mL
  IL-1b: 18.8 pg/mL
  IL-6: 18.8 pg/mL
  MCP-1: 342 pg/mL
  TNF-α: 18.8 pg/mL
IL-6, MCP-1; 0.05 mpk, 6 h
  IFNg: 18.8 pg/mL
  IFNα: 18.8 pg/mL
  IL-1b: 18.8 pg/mL
  IL-6: 18.8 pg/mL
  MCP-1: 543 pg/mL
  TNF-α: 41.5 pg/mL
IL-6, MCP-1; 0.05 mpk, 24 h
  IFNg: 18.8 pg/mL
  IFNα: 18.8 pg/mL
  IL-1b: 18.8 pg/mL
  IL-6: 18.8 pg/mL
  MCP-1: 236 pg/mL
  TNF-α: 17.6 pg/mL
IL-6, MCP-1; 0.05 mpk, Day 5
  IFNg: 39.3 pg/mL
  IFNα: 18.8 pg/mL
  IL-1b: 18.8 pg/mL
  IL-6: 18.8 pg/mL
  MCP-1: 232 pg/mL
  TNF-α: 63.5 pg/mL
IL-6, MCP-1; 0.05 mpk, Predose
  IFNg: 18.8 pg/mL
  IFNα: 18.8 pg/mL
  IL-1b: 18.8 pg/mL
  IL-6: 18.8 pg/mL
  MCP-1: 192 pg/mL
  TNF-α: 18.8 pg/mL
IL-6, MCP-1; 0.3 mpk, 2 h
  IFNg: 18.8 pg/mL
  IFNα: 18.8 pg/mL
  IL-1b: 18.8 pg/mL
  IL-6: 191 pg/mL
  MCP-1: 3018 pg/mL
  TNF-α: 38.2 pg/mL
IL-6, MCP-1; 0.3 mpk, 6 h
  IFNg: 18.8 pg/mL
  IFNα: 18.8 pg/mL
  IL-1b: 18.8 pg/mL
  IL-6: 33.0 pg/mL
  MCP-1: 2011 pg/mL
  TNF-α: 32.5 pg/mL
IL-6, MCP-1; 0.3 mpk, 24 h
  IFNg: 18.8 pg/mL
  IFNα: 18.8 pg/mL
  IL-1b: 18.8 pg/mL
  IL-6: 18.8 pg/mL
  MCP-1: 404 pg/mL
  TNF-α: 59.6 pg/mL
IL-6, MCP-1; 0.3 mpk, Day 5
  IFNg: 18.8 pg/mL
  IFNα: 18.8 pg/mL
  IL-1b: 18.8 pg/mL
  IL-6: 18.8 pg/mL
  MCP-1: 211 pg/mL
  TNF-α: 18.8 pg/mL
IL-6, MCP-1; 0.3 mpk, Predose
  IFNg: 18.8 pg/mL
  IFNα: 18.8 pg/mL
  IL-1b: 18.8 pg/mL
  IL-6: 18.8 pg/mL
  MCP-1: 168 pg/mL
  TNF-α: 18.8 pg/mL
IL-6, MCP-1; 1.0 mpk, 2 h
  IFNg: 35.8 pg/mL
  IFNα: 18.8 pg/mL
  IL-1b: 33.4 pg/mL
  IL-6: 834 pg/mL
  MCP-1: 4221 pg/mL
  TNF-α: 18.8 pg/mL
IL-6, MCP-1; 1.0 mpk, 6 h
  IFNg: 38.9 pg/mL
  IFNα: 18.8 pg/mL
  IL-1b: 18.8 pg/mL
  IL-6: 398 pg/mL
  MCP-1: 3945 pg/mL
  TNF-α: 18.8 pg/mL
IL-6, MCP-1; 1.0 mpk, 24 h
  IFNg: 18.8 pg/mL
  IFNα: 18.8 pg/mL
  IL-1b: 18.8 pg/mL
  IL-6: 31.4 pg/mL
  MCP-1: 1444 pg/mL
  TNF-α: 46.2 pg/mL
IL-6, MCP-1; 1.0 mpk, Day 5
  IFNg: 18.8 pg/mL
  IFNα: 18.8 pg/mL
  IL-1b: 18.8 pg/mL
  IL-6: 18.8 pg/mL
  MCP-1: 225 pg/mL
  TNF-α: 41.9 pg/mL
IL-6, MCP-1; 1.0 mpk, Predose
  IFNg: 18.8 pg/mL
  IFNα: 18.8 pg/mL
  IL-1b: 18.8 pg/mL
  IL-6: 18.8 pg/mL
  MCP-1: 235 pg/mL
  TNF-α: 18.8 pg/mL
[1]
  serum alanine aminotransferase levels: No statistical difference
  serum aspartate aminotransferase levels: No statistical difference
[2]
  primary metabolite: compound 166
Human hepatocytes; 0 min
  Detection in incubation: +
Human hepatocytes; 60 min
  Detection in incubation: +
Human hepatocytes; 120 min
  Detection in incubation: +
Human hepatocytes; 240 min
  Detection in incubation: +
[3]
  expression in ApoE knockout mice and LDLr knockout mice: almost complete loss in expression
[4]; all groups, Day 5
  reticulocyte counts: marked increase
[4]; non-human primates, single dose
  tolerability of the formulation: tolerated similarly to the MC3 formulation
[4]; single dose 0.05, 0.3 or 1.0 mpk
  Complement activation and cytokine release (IL-6 and MCP-1): dose-related and reversible
[4]; [6]
  Alanine aminotransferase (ALT) levels: did not increase
  Aspartate aminotransferase (AST): increased in the high dose group on Day 2 and returned to baseline by Day 5
[5]
  Clinical Observations: 20 min- Flushed ears and paws

## CCCCC/C=C\C/C=C\CCCCCCCCC(CCCCCCCC/C=C\C/C=C\CCCCC)OC(=O)CCCN(C)C [MC3, DLin-MC3-DMA, reference compound]
hEPO mRNA
  decrease of maximal expression levels over the course of the study: ~70%
